Tests used:
[1] = Binding to human plasma proteins; assay type: in vitro ADME; settings: read-out: % Bound to human plasma proteins (converted)
[2] = Phase 1 single-dose crossover: bioavailability and food effect of Compound 1/Compound 2 bilayer tablets; assay type: in vivo, human; settings: for Cmax / AUC(0-inf) / AUC(0-t) / half-life / Tmax: human, in vivo, oral, N = 23; for Cmax / AUC(0-inf) / AUC(0-t): geometric mean; for half-life: harmonic mean; for Tmax: median
Protocol: Phase 1, single-dose, four-period, randomized, complete crossover clinical trials were conducted to determine the bioavailability and food effect of the Compound 1/Compound 2 film-coated bilayer tablets. Tablets described in Table 1b were used in Regimens A, B and C, and separate tablets containing either Compound 1 or Compound 2 were used in Regimen D. Subjects took a single dose of Compound 1/Compound 2 on Day 1 of each Period. There was a washout of 4 days between doses. • i. Regimens A and D: study drugs were taken under fasting conditions. • ii. Regimen B: study drugs were taken approximately 30 minutes after start of moderate-fat breakfast (about 30% calories from fat). • iii. Regimen C: study drugs were taken approx. 30 minutes after start of high-fat breakfast (50% calories from fat). For Regimens A, B and C, the single dose consisted of three tablets of Table 1b, each tablet contains 100 mg/40 mg Compound 1/Compound 2. For Regimen D, the single dose contained three tablets of Compound 1, each of which contained 100 mg Compound 1, as well as three tablets of Compound 2, each of which contained 40 mg Compound 2. [table] [table]

[3] = Predicted PK exposures (Pop-PK AUC) in pediatric subjects; assay type: in vivo; design: concentration or dose not given beside the values; settings: human, oral
Excerpt: The predicted PK exposures (“Pop-PK AUC”) of Compound 1/Compound 2 based on all PK information collected in the study (including data from other study weeks) is shown in Table 13 and Table 13a.

[4] = Pharmacokinetic properties in healthy subjects; assay type: in vivo, human; settings: for Tmax: oral, median, single doses
clinical = settings: human, in vivo
Excerpt: Target AUC was derived from the geometric mean of AUC values from a population of adult subjects who received Compound 1 and Compound 2.

[5] = Steady-state pharmacokinetics of film-coated granules in pediatric subjects by age group; assay type: in vivo, human; design: Ctrough: unit not given here; settings: for Ctrough / AUC: Week 2; for AUC: human, oral, film-coated granules
Protocol: The study was designed to assess the steady state AUC and to assess the pharmacokinetics (PK) of Compound 1/Compound 2 in pediatric subjects by age group. […] Subjects were enrolled in this study and dosed with film-coated granules containing Compound 1/Compound 2 as generally described above in Example 3. [table] An intensive PK sample draw was done at the Week 2 visit with blood samples taken immediately prior to dose (0 hour) and at 2, 4, 6, and 12 hours post dose.

[6] = Single-dose crossover: bioavailability of Compound 1/Compound 2 mini-tablets; assay type: in vivo, human; settings: for Cmax / AUC(0-inf) / AUC(0-t) / half-life / Tmax: human, in vivo, oral, N = 14; for Cmax / AUC(0-inf) / AUC(0-t): geometric mean; for half-life: harmonic mean; for Tmax: median
Protocol: In comparison, when administered with food, the mini-tablets provided an AUC that was only 5% lower than that provided by the regular tablets. […] All of the reference AUCs of the regular tablets were measured under fasting conditions.
14 subjects were enrolled in this study and dosed with co-formulated Compound 1/Compound 2 in mini-tablets. One subject spilled 4 mini-tablets (out of 100-150 total mini-tablets) during dosing of Period 2 (Regimen G) and was not excluded from the analysis. The mini-tablets were prepared according to a process similar to that described in Example 2.

[7] = Mass balance studies with [14C] compound, single dose; assay type: in vivo, human; settings: single dose of [14C] compound
[8] = Phase 1 single-dose crossover: bioavailability and food effect of Compound 1/Compound 2 bilayer tablets; assay type: in vivo, human; settings: film-coated vs uncoated bilayer tablets, additional studies
Blood-to-plasma ratio = assay type: in vitro ADME; settings: human, whole blood/plasma
[9] = Regimen A: single dose bilayer tablets 300 mg/120 mg, fasting
[10] = Regimen B: single dose bilayer tablets 300 mg/120 mg with moderate fat breakfast
[11] = Regimen C: single dose bilayer tablets 300 mg/120 mg with high fat breakfast
[12] = Regimen D: single dose separate Compound 1 tablets (3 × 100 mg) and Compound 2 tablets (3 × 40 mg), fasting
[13] = mean systemic exposure with moderate to high fat meals
[14] = Regimen F: single dose mini-tablets 200 mg/120 mg, fasting
[15] = Regimen G: single dose mini-tablets 200 mg/120 mg, non-fasting
[16] = Regimen J: two Compound 1 tablets (100 mg each) and three Compound 2 tablets (40 mg each), fasting

COC(=O)N[C@H](C(=O)N1CCC[C@H]1c1nc2cc([C@H]3CC[C@H](c4cc5nc([C@@H]6CCCN6C(=O)[C@@H](NC(=O)OC)[C@@H](C)OC)[nH]c5cc4F)N3c3cc(F)c(N4CCC(c5ccc(F)cc5)CC4)c(F)c3)c(F)cc2[nH]1)[C@@H](C)OC [Compound 2]
fraction unbound [1]: < 0.001
Effect of administration with food on bioavailability ([2]; bilayer tablets): significantly improved
Cmax ([2]; Regimen A: single dose bilayer tablets 300 mg/120 mg (3 × 100 mg/40 mg), fasting): 116 ng/mL
AUC(0-inf) [2, 9]: 960 ng·h/mL
AUC(0-t) [2, 9]: 910 ng·h/mL
half-life [2, 9]: 13.3 h
Tmax [2, 9]: 4 h
AUC(0-inf) [2, 10]: 1350 ng·h/mL
AUC(0-t) [2, 10]: 1280 ng·h/mL
Cmax [2, 10]: 221 ng/mL
half-life [2, 10]: 13 h
Tmax [2, 10]: 5 h
AUC(0-inf) [2, 11]: 1460 ng·h/mL
AUC(0-t) [2, 11]: 1390 ng·h/mL
Cmax [2, 11]: 237 ng/mL
half-life [2, 11]: 13.5 h
Tmax [2, 11]: 5 h
AUC(0-inf) [2, 12]: 1490 ng·h/mL
AUC(0-t) [2, 12]: 1420 ng·h/mL
Cmax [2, 12]: 175 ng/mL
half-life [2, 12]: 12.5 h
Tmax [2, 12]: 4 h
AUC ([3]; blood, Table 13, 3 to <6 years old, N 10, predicted): 1430 ng·h/mL
AUC ([3]; blood, Table 13, 6 to <9 years old, N 9, predicted): 1460 ng·h/mL
AUC ([3]; blood, Table 13, 9 to <12 years old, N 10, predicted from all PK information collected in the study): 1440 ng·h/mL
AUC ([3]; in vivo, Table 13a, 3 to <6 years old, N 10, predicted): 1760 ng·h/mL
AUC ([3]; in vivo, Table 13a, 6 to <9 years old, N 9, predicted): 1730 ng·h/mL
AUC ([3]; in vivo, Table 13a, 9 to <12 years old, N 10, predicted): 2360 ng·h/mL
Metabolism ([4]; Biotransformation): none
Major route of elimination ([4]; human, in vivo): Biliary
Tmax ([4]; human, in vivo, healthy subjects, read-out: Tmax of granules): 3 to 5 h
Tmax ([4]; human, in vivo, healthy subjects, read-out: Tmax of tablets): 5 h
half-life ([4]; human, in vivo, healthy subjects, read-out: t1/2 at steady-state): 23 to 29 h
Effect of meal (relative to fasting) on adult tablets, ↑ [4, 13]: ↑ 40-53%
Effect of meal (relative to fasting) on granules, ↑ [4, 13]: ↑ 56-115%
AUC (clinical): 1430 ng·h/mL
Ctrough ([5]; 3 to <6 years old, post-adjustment 150 mg/60 mg, N 10): 17.5 (139)
Ctrough ([5]; 6 to <9 years old, post-adjustment 200 mg/80 mg, N 9): 20.0 (119)
Ctrough ([5]; 9 to <12 years old, post-adjustment 250 mg/100 mg, N 10): 40.8 (194)
AUC ([5]; blood, 3 to <6 years old, pre-adjustment, 3 sachets, 120 mg/45 mg, read-out: AUC, Geometric Mean): 871 ng·h/mL
AUC ([5]; blood, 6 to <9 years old, pre-adjustment, 4 sachets, 160 mg/60 mg, read-out: AUC, Geometric Mean): 987 ng·h/mL
AUC ([5]; blood, 9 to <12 years old, pre-adjustment, 5 sachets, 200 mg/75 mg Compound 1/Compound 2, read-out: AUC, Geometric Mean): 1250 ng·h/mL
AUC ([5]; in vivo, 3 to <6 years old, post-adjustment, 3 sachets, 150 mg/60 mg, N 10, read-out: AUC): 1660 ng·h/mL
AUC ([5]; in vivo, 6 to <9 years old, post-adjustment, 4 sachets, 200 mg/80 mg, N 9, read-out: AUC): 1520 ng·h/mL
AUC ([5]; in vivo, 9 to <12 years old, post-adjustment, 5 sachets, 250 mg/100 mg Compound 1/Compound 2, N 10, read-out: AUC): 2300 ng·h/mL
Exposures in children aged 3 to <12 years vs adolescents 12 to <18 years and adults from Phase 2/3 studies ([5]; recommended doses according to body weight): comparable
Effect of administration with food on bioavailability ([6]; co-formulated mini-tablets): significantly increased
Cmax ([6]; Regimen F: single dose mini-tablets 200 mg/120 mg Compound 1/Compound 2, fasting): 96 ng/mL
AUC(0-inf) [6, 14]: 913 ng·h/mL
AUC(0-t) [6, 14]: 863 ng·h/mL
half-life [6, 14]: 13.4 h
Tmax [6, 14]: 4 h
Cmax ([6]; Regimen G: single dose mini-tablets 200 mg/120 mg Compound 1/Compound 2, non-fasting): 177 ng/mL
AUC(0-inf) [6, 15]: 1320 ng·h/mL
AUC(0-t) [6, 15]: 1250 ng·h/mL
half-life [6, 15]: 13.2 h
Tmax [6, 15]: 3 h
Cmax ([6]; Regimen J: single dose two Compound 1 tablets (100 mg each) and three Compound 2 tablets (40 mg each), fasting): 139 ng/mL
AUC(0-inf) [6, 16]: 1260 ng·h/mL
AUC(0-t) [6, 16]: 1190 ng·h/mL
half-life [6, 16]: 13.3 h
Tmax [6, 16]: 4.5 h
AUC of mini-tablets higher than that of regular tablets (fasting) ([6]; mini-tablets with food, 120 mg Compound 2): 6%
AUC of mini-tablets lower than that of regular tablets (fasting) ([6]; mini-tablets without food, 200 mg Compound 1 / 120 mg Compound 2, same solid dispersion formulation): 28%
% of dose excreted in faeces [7]: 96.6%
% of dose excreted in urine [7]: 0%
Impact of film-coating on bioavailability [8]: minimal impact
blood plasma ratio (Blood-to-plasma ratio): 0.62
